Laboratory results as given in US20230286930A1, “N -SUBSTITUTED 4-(1,3-ARYLOXAZOLO-2-YL)PHENYL COMPOUNDS FOR THE TREATMENT AND PROPHYLAXIS OF HEPATITIS B VIRUS INFECTION” (Hoffmann-La Roche Inc., priority 2020, published 2023).

Legend:
HBsAg = assay: PHH natural infection assay, HBsAg (alphalisa); assay type: cell-based, HBV; details: Hepatitis B virus, read-out: HBsAg IC50
Method: (§1) Detailed procedures regarding primary human hepatocyte (PHH) HBV natural infection assay are described as below. One tube of frozen PHH (10 million cells) is thawed in 37° C. water bath and then transferred to 20 mL of PHH thawing medium (Sigma, InVitroGRO HT Medium, Cat. S03319) with gently mixing. The cells were then centrifuged at […] for 5 min, the supernatant was discarded and the tube was refilled with 25 mL of PHH plating medium (Sigma, InVitroGRO CP Medium, Cat. S03317). The tube was shaken very gently to re-suspend all cells, and then 50 μL of cells were transferred to each well 384-well collagen I coated plate with appropriate liquid handling equipment, e.g. Integra VIAFLO384 or Agilent Bravo. The cells were then cultured for 24 hours in a cell incubator. For HBV infection, after PHH attachment on the culture plate, the plating medium was removed and replenished with PHH culture medium containing HBV virus. The PHH culture medium was prepared with Dulbecco's Modified Eagle Medium (DMEM)/F12 (1:1 in volume ratio) containing 10% fetal bovine serum (Gibco, Cat. 10099141), 5 ng/mL human epidermal growth factor (Gibco, Cat.PHG0311L), 20 ng/mL dexamethasone (Sigma, Cat.D4902-100 mg), 250 ng/mL human recombinant insulin (Gibco, Cat.41400045) and 100 U/mL penicillin. HBV virus at 200 genome equivalent (GE) per cell with 4% PEG8000 (Sigma, Cat.P1458) containing culture medium were added to the PHH culture medium for infection. The cells were then cultured for 24 hours in cell incubator. Then the cell culture supernatant was removed. The HBV-infected PHH were cultured with sandwich culture method with PHH culture medium containing 1% DMSO and 0.25 mg/mL matrix gel for 72 hours. The supernatant was then refreshed with PHH culture medium containing different concentrations of testing compounds for two times with 72-hour interval. At the end of treatment, the supernatant was collected for viral markers measurements, including HBsAg, HBeAg, HBV DNA and cytotoxicity. HBsAg and HBeAg were detected using alphalisa method using their specific antibodies. For HBV DNA detection, HBV DNA Quantitative Fluorescence Diagnostic Kit (Sansure Biotech Inc.) was used following the manufacture's protocol. Cytotoxicity was determined using Cell Counting Kit-8 (CCK8, Dojindo Molecular Technologies, Inc.).
(§2) The compounds of the present invention were tested for their capacity to inhibit HBsAg and HBeAg as described herein.

HBeAg = assay: PHH natural infection assay, HBeAg (alphalisa); assay type: cell-based, HBV; details: Hepatitis B virus, read-out: HBeAg IC50
Method: as §1, §2

[1] = PHH natural infection assay, cytotoxicity (Cell Counting Kit-8); assay type: cell-based; details: human
Method: as §1

Compound | IC50 (HBsAg) [nM] | IC50 (HBeAg) [nM] | CC50 at 144 h [1] [nM]
O=C(Nc1ccc(-c2nc3cccc(F)c3o2)cc1)c1ccoc1 [Example 11, N-[4-(7-fluoro-1,3-benzoxazol-2-yl)phenyl]furan-3-carboxamide] | 2060 | 5620 | > 100000
CC(C)(C)C(=O)Nc1ccc(-c2nc3cccnc3o2)cc1 [Example 61, 2,2-dimethyl-N-(4-oxazolo[5,4-b]pyridin-2-ylphenyl)propanamide] | 1500 | 1550 | > 100000
O=C(Nc1ccc(-c2nc3c(F)cccc3o2)cc1)c1ccccn1 [Example 42, N-[4-(4-fluoro-1,3-benzoxazol-2-yl)phenyl]pyridine-2-carboxamide] | 460 | 520 | > 100000
O=C(Nc1ccc(-c2nc3cccnc3o2)cc1)C1CCS(=O)(=O)CC1 [Example 66, N-(4-oxazolo[5,4-b]pyridin-2-ylphenyl)-1,1-dioxo-thiane-4-carboxamide] | 3900 | 6110 | > 100000
CC1(C(=O)Nc2ccc(-c3nc4cccc(F)c4o3)cc2)CCC1 [Example 34, N-[4-(7-fluoro-1,3-benzoxazol-2-yl)phenyl]-1-methyl-cyclobutanecarboxamide] | 1610 | 1760 | > 100000
Cc1cnc(C(=O)Nc2ccc(-c3nc4ccc(F)c(F)c4o3)cc2)o1 [Example 78, N-[4-(6,7-difluoro-1,3-benzoxazol-2-yl)phenyl]-5-methyl-oxazole-2-carboxamide] | 810 | 1110 | > 100000
O=C(Nc1ccc(-c2nc3cccnc3o2)cc1)[C@@H]1CCS(=O)(=O)C1 (single isomer, unassigned) [Example 86-b] | 1950 | 1870 | > 100000
O=C(Nc1ccc(-c2nc3cccc(F)c3o2)cc1)C1CCSCC1 [Example 30, N-[4-(7-fluoro-1,3-benzoxazol-2-yl)phenyl]tetrahydrothiopyran-4-carboxamide] | 1490 | 1470 | > 100000
COC(=O)Nc1ccc(-c2nc3c(F)cccc3o2)cc1 [Example 58, methyl N-[4-(4-fluoro-1,3-benzoxazol-2-yl)phenyl]carbamate] | 5960 | 8770 | > 100000
O=C(Nc1ccc(-c2nc3ccc(F)c(F)c3o2)cc1)C1CCS(=O)(=O)C1 (stereo not drawn) [Example 83, N-[4-(6,7-difluoro-1,3-benzoxazol-2-yl)phenyl]-1,1-dioxo-thiolane-3-carboxamide] | 1790 | 2540 | > 100000
CC1(C(=O)Nc2ccc(-c3nc4cccc(F)c4o3)cc2)CCCO1 (stereo not drawn) [Example 35, N-[4-(7-fluoro-1,3-benzoxazol-2-yl)phenyl]-2-methyl-tetrahydrofuran-2-carboxamide] | 1670 | 1850 | > 100000
O=C(Nc1ccc(-c2nc3cccc(F)c3o2)cc1)C1COCCO1 (stereo not drawn) [Example 23, N-[4-(7-fluoro-1,3-benzoxazol-2-yl)phenyl]-1,4-dioxane-2-carboxamide] | 650 | 520 | > 100000
CC(=O)OC1(C(=O)Nc2ccc(-c3nc4cccc(F)c4o3)cc2)CCOCC1 [Example 26, [4-[[4-(7-fluoro-1,3-benzoxazol-2-yl)phenyl]carbamoyl]tetrahydropyran-4-yl] acetate] | 1080 | 840 | 73500
COC(C)C(=O)Nc1ccc(-c2nc3cccnc3o2)cc1 (stereo not drawn) [Example 62, 2-methoxy-N-(4-oxazolo[5,4-b]pyridin-2-ylphenyl)propanamide] | 1610 | 3290 | > 100000
CC(O)C(=O)Nc1ccc(-c2nc3cc(Cl)ccc3o2)cc1 (stereo not drawn) [Example 77, N-[4-(5-chloro-1,3-benzoxazol-2-yl)phenyl]-2-hydroxy-propanamide] | 2850 | 2540 | > 100000
O=C(Nc1ccc(-c2nc3cccc(F)c3o2)cc1)C1CC1(F)F (stereo not drawn) [Example 27, 2,2-difluoro-N-[4-(7-fluoro-1,3-benzoxazol-2-yl)phenyl]cyclopropanecarboxamide] | 1100 | 710 | > 100000
O=C(Nc1ccc(-c2nc3cc(Cl)ccc3o2)cc1)[C@H]1CCOC1 (single isomer, unassigned) [Example 87-b] | 3960 | 3800 | > 100000
CC1(C(=O)Nc2ccc(-c3nc4c(F)cccc4o3)cc2)COC1 [Example 51, N-[4-(4-fluoro-1,3-benzoxazol-2-yl)phenyl]-3-methyl-oxetane-3-carboxamide] | 1160 | 1230 | > 100000
CC1(C(=O)Nc2ccc(-c3nc4cccc(F)c4o3)cc2)COC1 [Example 12, N-[4-(7-fluoro-1,3-benzoxazol-2-yl)phenyl]-3-methyl-oxetane-3-carboxamide] | 480 | 630 | > 100000
O=C(Nc1ccc(-c2nc3cccnc3o2)cc1)C1COC1 [Example 68, N-(4-oxazolo[5,4-b]pyridin-2-ylphenyl)oxetane-3-carboxamide] | 4510 | 4220 | > 100000
CC1(C(=O)Nc2ccc(-c3nc4ccc(F)cc4o3)cc2)CCCO1 (stereo not drawn) [Example 5, N-[4-(6-fluoro-1,3-benzoxazol-2-yl)phenyl]-2-methyl-tetrahydrofuran-2-carboxamide] | 1450 | 1460 | > 100000
CC1(C(=O)Nc2ccc(-c3nc4cccnc4o3)cc2)CCOC1 (stereo not drawn) [Example 64, 3-methyl-N-(4-oxazolo[5,4-b]pyridin-2-ylphenyl)tetrahydrofuran-3-carboxamide] | 2760 | 3560 | > 100000
CC(C)(C)C(=O)Nc1ccc(-c2nc3ccc(F)cc3o2)cc1 [Example 3, N-[4-(6-fluoro-1,3-benzoxazol-2-yl)phenyl]-2,2-dimethyl-propanamide] | 1230 | 1630 | > 100000
O=C(Nc1ccc(-c2nc3cccc(Cl)c3o2)cc1)C1CCS(=O)(=O)C1 (stereo not drawn) [Example 85, N-[4-(7-chloro-1,3-benzoxazol-2-yl)phenyl]-1,1-dioxo-thiolane-3-carboxamide] | 2680 | 1720 | > 100000
O=C(Nc1ccc(-c2nc3c(F)cccc3o2)cc1)c1nccs1 [Example 44, N-[4-(4-fluoro-1,3-benzoxazol-2-yl)phenyl]thiazole-2-carboxamide] | 1330 | 1280 | > 100000
Cc1ncc(C(=O)Nc2ccc(-c3nc4ccc(F)c(F)c4o3)cc2)o1 [Example 81, N-[4-(6,7-difluoro-1,3-benzoxazol-2-yl)phenyl]-2-methyl-oxazole-5-carboxamide] | 1430 | 2060 | > 100000
CCC1(C(=O)Nc2ccc(-c3nc4cccc(F)c4o3)cc2)COC1 [Example 39, 3-ethyl-N-[4-(7-fluoro-1,3-benzoxazol-2-yl)phenyl]oxetane-3-carboxamide] | 6290 | 9010 | > 100000
